Laboratory results as given in patent publication EP4516309A1, “CRHR1 AGONISTS FOR USE IN THE TREATMENT OF SOCIAL ANXIETY DISORDERS” (Consejo Superior de Investigaciones Cientificas, priority 2023, dated 2025).

Molecular target: T1, inhibitory DREADD (Homo sapiens, UniProt P08173, A203G/Y113C)
T1 construct: host or cells: ILA CRH+ neurons of CRH-Cre mice, Cre-dependent AAV2/8 transduction in vivo
T1 sequence (P08173 1-479 Y113C/A203G): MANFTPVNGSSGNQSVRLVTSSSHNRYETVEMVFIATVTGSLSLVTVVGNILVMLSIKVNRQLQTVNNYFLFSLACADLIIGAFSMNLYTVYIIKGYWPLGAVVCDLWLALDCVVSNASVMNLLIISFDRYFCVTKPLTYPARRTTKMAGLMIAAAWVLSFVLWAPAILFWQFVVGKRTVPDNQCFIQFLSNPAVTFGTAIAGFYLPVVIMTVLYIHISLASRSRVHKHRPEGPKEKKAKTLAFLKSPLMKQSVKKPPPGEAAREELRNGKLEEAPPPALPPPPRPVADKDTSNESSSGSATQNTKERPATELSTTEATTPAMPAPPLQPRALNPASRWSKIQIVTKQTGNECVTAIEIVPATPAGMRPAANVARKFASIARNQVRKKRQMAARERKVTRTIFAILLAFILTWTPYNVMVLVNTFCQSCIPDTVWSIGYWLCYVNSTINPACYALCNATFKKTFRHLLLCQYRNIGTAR
Assay: Repetitive social presentation test with chemogenetic silencing of ILA CRH cells
Assay type: in vivo, CRH-Cre mice
Settings: CNO; iDREADD in ILA CRH cells
Description: Injection coordinates were the following (in mm from Bregma): AP: 1.65, ML: ±0.1, DV: -2.6. Injections were done bilaterally with 100 nl injected per site. AAV2/DJ hSyn.FLEX.mGFP.2A.Synatophysin-mRuby (Addgene #71760 prepared by the Stanford University vector core #1930), AAV2/8 hSyn.DIO.hM4D(Gi)-mCherry (Addgene #44362-AAV8), AAV2/8 hSyn.DIO.mCherry (Addgene #50459-AAV8), AAV2/5-hSyn-DIO-hM3D(Gq)-mCherry (Addgene, #44361-AAV5), AAV2/5 hsyn.DIO.mCherry (Addgene #50459-AAV5), AAV2/1 syn.FLEX.GCaMP6f.WPRE.SV40 (Addgene #100833-AAV1), AAV2/9 CMV-DIO-(mCherry-U6)-shRNA(anti-Crh) (VTA brain), AAV2/9 CMV-DIO-(mCherry-U6)-shRNA(scrambled) (VTA brain), AAV2/9 hSyn.FLEX.dsRed-shRNA(Vgat) (Addgene #67845), AAV 2/9 hSyn-flex-dsRed-shRNA(scrambled) (Addgene #71383), AAV2/2 CAG.FLEX.ArchT-tdTomato (Addgene #28305 prepared by the University of North Carolina vector core) and AAV2/2 CAG.FLEX.tdTomato (Addgene #28306 prepared by the University of North Carolina vector core) were injected into the ILA of CRH-Cre mice. Viruses expressed for a minimum of 2 weeks.
Repetitive social presentation test. […] Films were scored offline for social interaction by a trained observer blind to the experimental condition. Sniffing of any part of the body, allo-grooming and close following counted as social interaction. […]

In the case of C[N+]1([O-])CCN(C2=Nc3cc(Cl)ccc3Nc3ccccc32)CC1 [CNO, clozapine N-oxide], the “interaction time during the repeated presentations” value is reported as “showed no decrease in interaction time”.
